Measured values taken from patent US8084457B2, “Pharmaceutically active 4,6-disubstituted aminopyrimidine derivatives as modulators of protein kinases” (Lead Discovery Center GmbH, priority 2003, dated 2011).

Legend:
[1] = system: HCMV strain AD169; test: HCMV replication assay in HFF cells (EGFP); assay type: cell-based; settings: strain AD 169 in HFF cells
Description: Human foreskin fibroblasts (HFF) cell culture were grown in DMEM containing 10% FCS. For HCMV-replication assays, HFF cells were infected with HCMV strain AD169 producing EGFP (HCMV AD169-GFP; 27). 1 h post infection, medium was changed with medium containing the indicated compound concentration (0.3 μM, 1 μM and 3 μM, respectively) After incubation of 7 days cells were lysed (in 25 mM Tris, pH 7.5, 2 mM DTT, 1% Triton X-100 and 10% glycerol) and analysed for EGFP content in a Wallac Victor fluorescence detector.

[2] = molecular target: p56 Lck (Homo sapiens, UniProt P06239); test: General kinase assay, selectivity panel: p56 Lck; assay type: biochemical; settings: 10 μM of compound, in comparison to DMSO (0% inhibition)
Chain of p56 Lck (P06239 whole entry): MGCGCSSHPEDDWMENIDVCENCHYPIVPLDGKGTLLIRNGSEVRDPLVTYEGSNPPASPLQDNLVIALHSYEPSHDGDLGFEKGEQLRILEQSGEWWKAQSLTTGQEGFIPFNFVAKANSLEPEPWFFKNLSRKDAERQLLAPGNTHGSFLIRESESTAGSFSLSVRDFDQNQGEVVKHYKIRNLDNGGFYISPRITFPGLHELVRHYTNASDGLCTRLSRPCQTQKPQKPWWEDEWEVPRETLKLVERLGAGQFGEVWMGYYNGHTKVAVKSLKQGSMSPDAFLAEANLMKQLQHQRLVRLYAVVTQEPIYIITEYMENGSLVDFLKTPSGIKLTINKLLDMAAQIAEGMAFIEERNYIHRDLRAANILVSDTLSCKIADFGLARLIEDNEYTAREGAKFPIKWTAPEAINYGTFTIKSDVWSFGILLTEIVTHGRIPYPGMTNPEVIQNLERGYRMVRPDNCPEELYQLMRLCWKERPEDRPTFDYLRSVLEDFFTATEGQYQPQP
Description: (§1) The inhibitory effect of compounds according to the present invention on the activity of protein kinases, depicted in Table 1, can be measured according to the following protocol:
(§2) Pipettinq Sequence: • 1) Add 10 μl 4 fold concentrated Substrate+4 fold concentrated ATP in 3 fold concentrated Reaction Buffer to each well of Assay Plate • 2) Add 10 μl 4 fold concentrated inhibitor in 4% DMSO in H2O to each well except to C− and C+ wells • 3) Add 10 μl 4% DMSO in H2O to C− and C+ wells • 4) Add 10 μl 500 mM EDTA in H2O to − wells • 5) Add 10 μl 50 μCi/ml Adenosine 5′-[γ-^33P]triphosphate in H2O to each well • 6) Add 10 μl 4 fold concentrated kinase in Reaction Buffer to each well • 7) Incubate 1 hr at room temperature • 8) Add 10 μl 50 mM EDTA in H2O to each well except to C− wells • 9) Prepare MAPH plates by adding 200 μl 0.75% H3PO4 to each well • 10) Exhaust 0.75% H3PO4 using Millipore vacuum station • 11) Add 60 μl 0.75% H3PO4 to each well of MAPH Filter Plate • 12) Transfer 30 μl sample per well from Assay Plate to corresponding well of MAPH Filter Plate • 13) Incubate 30 min at room temperature • 14) Wash each well of MAPH Filter Plates 3× with 200 μl 0.75% H3PO4 using Millipore vacuum station. • 15) Add 20 μl Scintillation Liquid to each well of MAPH Filter Plate • 16) Seal MAPH Filter Plate • 17) Store MAPH Filter Plate 30 min in darkness • 18) Quantify radioactivity
(§3) The activity of these protein kinases is depicted as % inhibition in the presence of 10 μM of compound in comparison to DMSO (0% inhibition).

[3] = molecular target: EGFR (Homo sapiens, UniProt P00533); test: General kinase assay, selectivity panel: EGFR; assay type: biochemical; settings: 10 μM of compound, in comparison to DMSO (0% inhibition)
Chain of EGFR (P00533 25-1210, species assumed): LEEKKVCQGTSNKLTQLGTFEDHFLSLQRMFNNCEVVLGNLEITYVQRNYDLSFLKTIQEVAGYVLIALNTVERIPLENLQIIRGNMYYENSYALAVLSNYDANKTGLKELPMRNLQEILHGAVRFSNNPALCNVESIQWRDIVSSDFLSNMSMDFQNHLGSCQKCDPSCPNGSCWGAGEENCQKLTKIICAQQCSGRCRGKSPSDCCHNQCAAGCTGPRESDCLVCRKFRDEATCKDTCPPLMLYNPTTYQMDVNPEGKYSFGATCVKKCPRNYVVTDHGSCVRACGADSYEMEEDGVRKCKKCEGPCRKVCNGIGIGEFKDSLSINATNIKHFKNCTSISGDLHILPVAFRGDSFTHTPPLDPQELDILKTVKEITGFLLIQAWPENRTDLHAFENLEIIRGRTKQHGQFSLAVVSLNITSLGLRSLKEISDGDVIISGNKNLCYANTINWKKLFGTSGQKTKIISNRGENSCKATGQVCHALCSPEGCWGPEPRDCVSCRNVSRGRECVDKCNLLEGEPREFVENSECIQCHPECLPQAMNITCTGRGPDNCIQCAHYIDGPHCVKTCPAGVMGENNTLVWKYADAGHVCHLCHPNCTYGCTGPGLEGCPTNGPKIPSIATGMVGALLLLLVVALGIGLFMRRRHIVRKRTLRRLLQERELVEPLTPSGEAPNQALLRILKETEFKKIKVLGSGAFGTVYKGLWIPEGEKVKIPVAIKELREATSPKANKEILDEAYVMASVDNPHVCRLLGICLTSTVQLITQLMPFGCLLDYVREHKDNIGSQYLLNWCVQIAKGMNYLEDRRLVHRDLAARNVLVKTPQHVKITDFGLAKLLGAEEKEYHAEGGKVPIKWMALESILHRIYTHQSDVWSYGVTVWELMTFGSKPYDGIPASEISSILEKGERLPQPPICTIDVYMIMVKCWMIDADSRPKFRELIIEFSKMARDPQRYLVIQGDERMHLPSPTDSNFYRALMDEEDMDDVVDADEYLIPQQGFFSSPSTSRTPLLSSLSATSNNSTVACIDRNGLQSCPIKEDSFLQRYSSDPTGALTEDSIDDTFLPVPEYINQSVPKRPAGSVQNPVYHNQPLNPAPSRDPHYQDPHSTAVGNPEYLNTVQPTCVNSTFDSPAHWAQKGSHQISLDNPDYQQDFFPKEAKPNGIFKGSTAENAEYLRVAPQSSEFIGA
Description: as §1, §2, §3

[4] = molecular target: CDK1 (Homo sapiens, UniProt P06493); test: General kinase assay, selectivity panel: CDK1; assay type: biochemical; settings: 10 μM of compound, in comparison to DMSO (0% inhibition)
Chain of CDK1 (P06493 whole entry, species assumed): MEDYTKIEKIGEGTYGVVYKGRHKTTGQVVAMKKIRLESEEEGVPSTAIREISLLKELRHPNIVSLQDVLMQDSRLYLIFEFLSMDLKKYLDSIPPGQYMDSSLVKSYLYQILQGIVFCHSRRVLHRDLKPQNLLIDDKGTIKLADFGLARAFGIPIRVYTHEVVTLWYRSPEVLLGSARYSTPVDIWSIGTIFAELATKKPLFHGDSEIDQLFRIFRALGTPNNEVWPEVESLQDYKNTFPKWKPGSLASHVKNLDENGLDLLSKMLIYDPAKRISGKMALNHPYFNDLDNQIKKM
Chain of CDK1 (P14635 whole entry partner, species assumed): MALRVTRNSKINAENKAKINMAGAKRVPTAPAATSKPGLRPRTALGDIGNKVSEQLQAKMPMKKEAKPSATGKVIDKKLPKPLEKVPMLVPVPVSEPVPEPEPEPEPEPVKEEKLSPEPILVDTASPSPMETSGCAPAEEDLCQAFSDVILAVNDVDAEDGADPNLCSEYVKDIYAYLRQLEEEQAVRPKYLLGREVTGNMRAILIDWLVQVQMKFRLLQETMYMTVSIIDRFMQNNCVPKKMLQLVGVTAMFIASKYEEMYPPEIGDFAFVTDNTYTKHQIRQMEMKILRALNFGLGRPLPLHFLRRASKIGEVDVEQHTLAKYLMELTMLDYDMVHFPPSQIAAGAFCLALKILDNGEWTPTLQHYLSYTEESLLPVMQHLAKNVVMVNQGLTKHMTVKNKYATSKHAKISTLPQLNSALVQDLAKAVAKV
Description: as §1, §2, §3

[5] = molecular target: GSK-3β (Homo sapiens, UniProt P49841); test: General kinase assay, selectivity panel: GSK-3β; assay type: biochemical; settings: 10 μM of compound, in comparison to DMSO (0% inhibition)
Chain of GSK-3β (P49841 whole entry, species assumed): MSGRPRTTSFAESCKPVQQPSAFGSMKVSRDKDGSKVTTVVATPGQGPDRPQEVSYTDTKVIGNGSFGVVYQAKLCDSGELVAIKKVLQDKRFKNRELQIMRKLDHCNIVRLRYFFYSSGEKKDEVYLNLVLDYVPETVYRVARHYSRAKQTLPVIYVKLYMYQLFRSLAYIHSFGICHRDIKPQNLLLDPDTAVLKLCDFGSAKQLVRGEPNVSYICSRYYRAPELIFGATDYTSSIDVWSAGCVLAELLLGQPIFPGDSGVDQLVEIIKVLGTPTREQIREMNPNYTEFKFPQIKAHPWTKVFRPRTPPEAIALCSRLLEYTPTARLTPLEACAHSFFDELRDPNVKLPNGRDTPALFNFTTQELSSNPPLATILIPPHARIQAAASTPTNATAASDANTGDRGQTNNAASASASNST
Description: as §1, §2, §3

[6] = system: NFκB-dependent transcriptional activity; test: NFκB-dependent transcriptional activity (NIH 3T3 75E 11/300D8 cell line); assay type: cell-based
From the text: NFκB-dependent Transcriptional Activity:
The used NIH 3T3 75E 11/300D8 cell line is described elsewhere (J. Eickhoff et al., Journal of Biological Chemistry, 2004, 279(10), 9642-9652).
It is known, that CDK9 regulates the NFκB-dependent transitional activity. With Compound 4, Compound 7 and Compound 30 studies were done, to evaluate their effect on NFκB-dependent transcriptional activity.

[7] = system: PDGFR; test: General kinase assay, selectivity panel: PDGFR; assay type: biochemical; settings: 10 μM of compound, in comparison to DMSO (0% inhibition)
Description: as §1, §2, §3

[8] = molecular target: c-Kit (Homo sapiens, UniProt P10721); test: General kinase assay, selectivity panel: c-Kit; assay type: biochemical; settings: 10 μM of compound, in comparison to DMSO (0% inhibition)
Chain of c-Kit (P10721 26-976): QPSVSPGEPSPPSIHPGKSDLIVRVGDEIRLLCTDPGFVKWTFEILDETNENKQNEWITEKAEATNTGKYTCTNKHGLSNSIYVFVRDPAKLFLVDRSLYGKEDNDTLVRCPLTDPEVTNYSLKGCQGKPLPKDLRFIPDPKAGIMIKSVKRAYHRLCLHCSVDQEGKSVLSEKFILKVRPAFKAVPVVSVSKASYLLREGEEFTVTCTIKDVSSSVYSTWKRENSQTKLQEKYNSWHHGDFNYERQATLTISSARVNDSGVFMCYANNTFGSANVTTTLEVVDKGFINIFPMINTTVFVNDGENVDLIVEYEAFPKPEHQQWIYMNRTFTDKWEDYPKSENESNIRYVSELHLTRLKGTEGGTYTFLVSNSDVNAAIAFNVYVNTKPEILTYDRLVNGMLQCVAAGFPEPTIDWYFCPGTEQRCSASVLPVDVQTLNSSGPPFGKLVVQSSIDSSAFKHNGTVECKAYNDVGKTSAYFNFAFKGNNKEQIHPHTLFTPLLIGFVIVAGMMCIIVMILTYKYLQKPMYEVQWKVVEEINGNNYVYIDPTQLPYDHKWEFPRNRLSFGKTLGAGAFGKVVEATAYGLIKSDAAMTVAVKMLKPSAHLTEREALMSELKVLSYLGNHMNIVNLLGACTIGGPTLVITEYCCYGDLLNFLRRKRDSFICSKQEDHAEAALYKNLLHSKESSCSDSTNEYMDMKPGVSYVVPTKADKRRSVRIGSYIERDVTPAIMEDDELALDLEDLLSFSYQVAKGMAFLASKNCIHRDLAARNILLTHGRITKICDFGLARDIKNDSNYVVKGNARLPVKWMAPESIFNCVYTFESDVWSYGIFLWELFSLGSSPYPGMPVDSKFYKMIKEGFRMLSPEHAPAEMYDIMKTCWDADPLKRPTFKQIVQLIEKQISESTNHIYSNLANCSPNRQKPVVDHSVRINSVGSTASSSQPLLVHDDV
Description: as §1, §2, §3

[9] = molecular target: Abl (Homo sapiens, UniProt P00519); test: General kinase assay, selectivity panel: Abl; assay type: biochemical; settings: 10 μM of compound, in comparison to DMSO (0% inhibition)
Description: as §1, §2, §3

[10] = molecular target: RSK1 (Homo sapiens, UniProt Q15418); test: General kinase assay, selectivity panel: RSK1; assay type: biochemical; settings: 10 μM of compound, in comparison to DMSO (0% inhibition)
Description: as §1, §2, §3

[11] = molecular target: cMet (Homo sapiens, UniProt P08581); test: General kinase assay, selectivity panel: cMet; assay type: biochemical; settings: 10 μM of compound, in comparison to DMSO (0% inhibition)
Description: as §1, §2, §3

[12] = molecular target: c-Src (Homo sapiens, UniProt P12931); test: General kinase assay, selectivity panel: c-Src; assay type: biochemical; settings: 10 μM of compound, in comparison to DMSO (0% inhibition)
Chain of c-Src (P12931 whole entry, species assumed): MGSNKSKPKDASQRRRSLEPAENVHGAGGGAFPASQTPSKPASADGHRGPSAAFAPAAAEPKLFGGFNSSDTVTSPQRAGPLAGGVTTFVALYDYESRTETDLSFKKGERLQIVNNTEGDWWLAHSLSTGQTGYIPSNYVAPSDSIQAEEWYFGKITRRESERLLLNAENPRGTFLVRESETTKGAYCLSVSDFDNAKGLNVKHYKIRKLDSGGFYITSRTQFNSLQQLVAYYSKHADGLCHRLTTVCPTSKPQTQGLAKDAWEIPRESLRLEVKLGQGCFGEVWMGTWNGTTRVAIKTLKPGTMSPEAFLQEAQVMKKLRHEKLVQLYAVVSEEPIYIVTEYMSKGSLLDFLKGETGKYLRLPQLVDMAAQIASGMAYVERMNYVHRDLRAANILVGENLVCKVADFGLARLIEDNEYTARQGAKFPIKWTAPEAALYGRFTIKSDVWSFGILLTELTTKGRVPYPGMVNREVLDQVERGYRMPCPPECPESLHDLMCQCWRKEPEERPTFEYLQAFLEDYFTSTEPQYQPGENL
Description: as §1, §2, §3

SMILES | HCMV replication (in words) [1] | p56 Lck (% inhibition) [2] | EGFR (% inhibition) [3] | CDK1 (% inhibition) [4] | GSK-3β (% inhibition) [5] | inhibition of NFκB (in words, compared with Compound 30) [6] | EC50 ([6]; titration) | PDGFR (% inhibition) [7] | c-Kit (% inhibition) [8] | Abl (% inhibition) [9] | RSK1 (% inhibition) [10] | cMet (% inhibition) [11] | c-Src (% inhibition) [12]
Nc1ccc(C(=O)Nc2ccc(Nc3cc(-c4ccccc4OCc4ccccc4)ncn3)cc2)cc1 [Compound 4] | showed inhibition | a (inhibition greater than 80%: a) | c (inhibition between 50 and 30%: c) | a (inhibition greater than 80%: a) | a (inhibition greater than 80%: a) | less effectively | ~2 µM |  |  |  |  |  | 
COc1ccc(-c2cc(Nc3ccc(NC(=O)c4ccc(N)cc4)cc3)ncn2)cc1 [Compound 6] | showed inhibition | c (inhibition between 50 and 30%: c) |  | a (inhibition greater than 80%: a) | b (inhibition between 80 and 50%: b) |  |  | c (inhibition between 50 and 30%: c) | b (inhibition between 80 and 50%: b) |  |  |  | 
COc1ccccc1-c1cc(Nc2ccc(NC(=O)C3CCCN(C)C3)cc2)ncn1 (stereo not drawn) [Compound 87] |  | b (inhibition between 80 and 50%: b) | a (inhibition greater than 80%: a) | a (inhibition greater than 80%: a) |  |  |  | b (inhibition between 80 and 50%: b) | b (inhibition between 80 and 50%: b) | b (inhibition between 80 and 50%: b) | b (inhibition between 80 and 50%: b) | c (inhibition between 50 and 30%: c) | 
COc1ccccc1-c1cc(Nc2ccc(C(=O)N[C@@H]3CCCC[C@H]3N)cc2)ncn1 (racemic) [Compound 83] |  | b (inhibition between 80 and 50%: b) | b (inhibition between 80 and 50%: b) | a (inhibition greater than 80%: a) | c (inhibition between 50 and 30%: c) |  |  | b (inhibition between 80 and 50%: b) | b (inhibition between 80 and 50%: b) | c (inhibition between 50 and 30%: c) |  | b (inhibition between 80 and 50%: b) | b (inhibition between 80 and 50%: b)
NC(=O)c1ccc(Nc2cc(-c3ccccc3OCc3ccccc3)ncn2)cc1 [Compound 95] |  | b (inhibition between 80 and 50%: b) | b (inhibition between 80 and 50%: b) | a (inhibition greater than 80%: a) | a (inhibition greater than 80%: a) |  |  | c (inhibition between 50 and 30%: c) |  |  |  |  | b (inhibition between 80 and 50%: b)
